The values that follow are results of earlier work, collected in patent publication US8920373B2, “Reduced volume formulation of glatiramer acetate and methods of administration” (Teva Pharmaceutical Industries, Ltd., priority 2009, dated 2014).

The series relates to RRMS subjects.

glatiramer acetate: for the setting “human, in vivo”, the “Patients reporting Immediate Post-Injection Reaction (IPIR)” value is given as 31% and the “Proportion of patients reporting injection-site reactions at least once” value is given as 70%. In addition, under “largest controlled study”, the “Reduction of relapse rate versus placebo” value was 32% and the Relapse rate was 1.34. For the same substance, where the note is “over 9 months of treatment”, the “Median cumulative number of Gd-enhancing lesions” value is recorded as 11 lesions.
